Several values for one entry are separate records, joined by “and”; a condition that tells them apart may be missing. Equal values may be shown once.
Experiments:
[1] = tested on: MCF-7, cancer cell line; test: MCF-7 growth inhibition (SRB or Sysmex cell counting); format: cell-based; conditions: SRB or CC assay
[2] = tested on: Human umbilical vein endothelial cells; test: Proliferation Assay - activated endothelium (MTT); format: cell-based; conditions: HUVEC, range within which the IC50 value falls, 48 hrs culture, read-out: Inhib activated HUVECs IC50
Procedure: Proliferation Assay—activated endothelium: Human umbilical vein endothelial cells (CC-2519, Clonetics) were plated at 2500 cells/well in EGM2 (CC-3162, Clonetics) in a 96 well plate in triplicate. Cells were cultured overnight at 37° C. 5% CO2. Medium was subsequently replaced with fresh medium including the compound or negative control. Cells were cultured for a period of 48 hrs. An MTT assay was performed to measure changes in cell numbers. Briefly, 20 μl of MTT reagent was added to cells containing 100 μl of EGM2 and incubated at 37° C. for 2 hours. Absorbance was measured at 492 nm.

[3] = concentration required to inhibit net cell growth by 50%
[4] = Homo sapiens, MCF7, concentration required to inhibit net cell growth by 50%

| IC50 [1, 3] | IC50 [1, 4] | Compound | IC50 [2] |
| --- | --- | --- | --- |
| 0.0014 µM and 0.0022 µM |  | 2-Imidazol-1-yl-7-O-bis-(triethylammonium)phosphate-6-methoxy-3-(3,4,5-trimethoxybenzoyl)-benzo[b]furan [Entry 49] |  |
|  |  | COc1ccc(/C=C\c2cc(OC)c(OC)c(OC)c2)cc1O [Entry 1, reference compound] | 0.001 to 0.01 µM |
| 0.031 µM | 0.062 µM | COc1cc(C(=O)c2coc3c(O)c(OC)ccc23)cc(OC)c1OC [Entry 7, reference compound] | 0.01 to 0.1 µM |
| 0.035 µM | 0.048 µM | COc1cc(C(=O)c2c(-c3cnn(C)c3)oc3c(OC(C)C)c(OC)ccc23)cc(OC)c1OC [Entry 13] |  |
| 0.0034 µM | 0.003 µM | COc1cc(C(=O)c2c(-c3cn[nH]c3)oc3c(O)c(OC)ccc23)cc(OC)c1OC [Entry 16, [7-Hydroxy-6-methoxy-2-(1H-pyrazol-4-yl)-benzofuran-3-yl]-(3,4,5-trimethoxyphenyl)-methanone] | 0.001 to 0.01 µM |
| 0.083 µM | 0.11 µM | COc1ccc2c(C(=O)c3cc(OC)c(OC)c(OC)c3)c(-c3cnn(Cc4ccccc4)c3)oc2c1 [Entry 17, [2-(1-Benzyl-1H-pyrazol-4-yl)-6-methoxy-benzofuran-3-yl]-(3,4,5-trimethoxyphenyl)-methanone] | 0.1 to 1 µM |
| 0.04 µM | 0.033 µM | COc1cc(C(=O)c2c(-c3cnn(C)c3)oc3c([N+](=O)[O-])c(OC)ccc23)cc(OC)c1OC [Entry 20, [6-Methoxy-7-nitro-2-(1-methyl-1H-pyrazol-4-yl)-benzofuran-3-yl]-(3,4,5-trimethoxyphenyl)-methanone] | 0.01 to 0.1 µM |
| 0.029 µM | 0.025 µM | COc1cc(C(=O)c2c(-c3cnn(C)c3)oc3c(O)c(OC)ccc23)cc(OC)c1O [Entry 22] |  |
| 0.0044 µM | 0.0033 µM | COc1cc(OC)cc(C(=O)c2c(-c3cnn(C)c3)oc3c(O)c(OC)ccc23)c1 [Entry 24, 2-(4-N-methylpyrazolyl)-3-(3,5-dimethoxybenzoyl)-6-methoxy-7-hydroxy-benzofuran] | 0.001 to 0.01 µM |
| 0.057 µM | 0.068 µM | COc1cc(C(=O)c2c(-c3c(C)noc3C)oc3c(O)c(OC)ccc23)cc(OC)c1OC [Entry 25, 2-(3,5-dimethylisoxazol-4-yl)-7-hydroxy-3-(3,4,5-trimethoxy-benzoyl)-6-methoxybenzo[b]furan] | 0.01 to 0.1 µM |
| < 0.001 µM | 0.0016 µM | COc1cc(C(=O)c2c(-n3ccnc3)oc3c(O)c(OC)ccc23)cc(OC)c1OC [Entry 27, 2-(N-imidazolyl)-7-hydroxy-3-(3,4,5-trimethoxybenzoyl)-6-methoxy-benzo[b]furan] | 0.001 to 0.01 µM |
| 0.54 µM | 0.9 µM | COc1ccc2c(C(=O)c3cc(OC)c(OC)c(OC)c3)c(-c3cnn(CC(=O)O)c3)oc2c1 [Entry 29, Sodium {4-[6-Methoxy-3-(3,4,5-trimethoxy-benzoyl)-benzo[b]furan-2-yl]-pyrazol-1-yl}-acetate] | 0.1 µM |
| 0.015 µM | 0.029 µM | CCOC(=O)Cn1cc(-c2oc3cc(OC)ccc3c2C(=O)c2cc(OC)c(OC)c(OC)c2)cn1 [Entry 30, {4-[6-Methoxy-3-(3,4,5-trimethoxy-benzoyl)-benzofuran-2-yl]-pyrazol-1-yl}-acetic acid ethyl ester] | 0.01 to 0.1 µM |
| 0.004 µM | 0.0038 µM | COc1ccc2c(C(=O)c3cc(OC)c(OC)c(OC)c3)c(-c3cnn(CC(N)=O)c3)oc2c1 [Entry 31, 2-{4-[6-Methoxy-3-(3,4,5-trimethoxy-benzoyl)-benzo[b]furan-2-yl]-pyrazol-1-yl}-acetamide] | 0.001 to 0.01 µM |
| 0.004 µM | 0.0036 µM | COc1ccc2c(C(=O)c3cc(OC)c(OC)c(OC)c3)c(-c3cn[nH]c3)oc2c1 [Entry 32, 6-Methoxy-2-(1H-pyrazol-4-yl)-3-(3,4,5-trimethoxybenzoyl)benzo[b]furan] | 0.001 to 0.01 µM |
| 0.6 µM | 0.54 µM | COc1cc(C(=O)c2c(-c3cnn(C)c3)oc3c2ccc2ocnc23)cc(OC)c1OC [Entry 33] | 0.1 to 1 µM |
| 0.0024 µM | 0.0035 µM | COc1cc(C(=O)c2c(-n3cccn3)oc3c(O)c(OC)ccc23)cc(OC)c1OC [Entry 34, 2-(N-pyrazolyl)-7-hydroxy-3-(3,4,5-trimethoxybenzoyl)-6-methoxy-benzo[b]furan] | 0.1 to 1 µM |
|  |  | COc1cc(C(=O)c2c(-n3ccnn3)oc3c(O)c(OC)ccc23)cc(OC)c1OC [Entry 35, 2-(1N-1,2,3-triazolyl)-7-hydroxy-3-(3,4,5-trimethoxybenzoyl)-6-methoxy-benzo[b]furan] | 0.001 to 0.01 µM |
| 0.0021 µM | 0.0014 µM | COc1cc(C(=O)c2c(-n3cccc3)oc3c(O)c(OC)ccc23)cc(OC)c1OC [Entry 38, 2-(1-pyrolyl)-7-hydroxy-3-(3,4,5-trimethoxybenzoyl)-6-methoxy-benzo[b]furan] | 0.001 to 0.01 µM |
| 0.035 µM | 0.04 µM | COc1ccc2c(C(=O)c3cc(OC)c(OC)c(OC)c3)c(-c3cn(C)cn3)oc2c1 [Entry 39, [2-(1-methyl-1H-Imidazol-4-yl)-6-methoxy-benzofuran-3-yl]-(3,4,5-trimethoxyphenyl)-methanone] | 0.01 to 0.1 µM |
| 0.35 µM | 0.36 µM | COc1ccc(-n2cc(-c3oc4cc(OC)ccc4c3C(=O)c3cc(OC)c(OC)c(OC)c3)cn2)cc1 [Entry 40, {6-Methoxy-2-[1-(4-methoxy-phenyl)-1H-pyrazol-4-yl]-benzofuran-3-yl}-(3,4,5-trimethoxyphenyl)-methanone] | 0.1 to 1 µM |
| 0.31 µM | 0.3 µM | COc1ccc2c(C(=O)c3cc(OC)c(OC)c(OC)c3)c(-c3cnn(CCN(C)C)c3)oc2c1 [Entry 42, {2-[1-(2-Dimethylamino-ethyl)-1H-pyrazol-4-yl]-6-methoxy-benzofuran-3-yl}-(3,4,5-trimethoxyphenyl)-methanone] | 0.1 to 1 µM |
| 0.0057 µM | 0.0045 µM | COc1ccc2c(C(=O)c3cc(OC)c(OC)c(OC)c3)c(-c3c[nH]cn3)oc2c1 [Entry 45, [2-(1H-Imidazol-4-yl)-6-methoxy-benzofuran-3-yl]-(3,4,5-trimethoxyphenyl)-methanone] | 0.001 to 0.01 µM |
|  |  | COc1cc(C(=O)c2c(-c3cnn(CC(N)=O)c3)oc3c(O)c(OC)ccc23)cc(OC)c1OC [Entry 51, 2-{4-[7-Hydroxy-6-methoxy-3-(3,4,5-trimethoxybenzoyl)-benzofuran-2-yl]-pyrazol-1-yl}-acetamide] | 0.0001 to 0.001 µM |

| Compound | IC50 [1, 3] | IC50 [1, 4] | IC50 [2] |
| --- | --- | --- | --- |
| COc1ccc(-c2oc3c(OP(=O)(O)O)c(OC)ccc3c2C(=O)c2cc(OC)c(OC)c(OC)c2)cc1 [Entry 8, reference compound] | 0.0042 µM and 0.006 µM and 0.0047 µM | 0.0036 µM |  |
| COc1cc(C(=O)c2coc3c(OP(=O)(O)O)c(OC)ccc23)cc(OC)c1OC [Entry 9, reference compound] | 0.082 µM | 0.041 µM |  |
| COc1cc(C(=O)c2c(-c3cnn(Cc4ccccc4)c3)oc3c(O)c(OC)ccc23)cc(OC)c1OC [Entry 15] | 0.0033 µM | 0.0041 µM |  |
| COc1ccc2c(C(=O)c3cc(OC)c(OC)c(OC)c3)c(-c3ccsc3)oc2c1 [Entry 18, 2-(3-Thiophenyl)-3-(3,4,5-trimethoxybenzoyl)-6-methoxy-benzo[b]furan] | 0.022 µM | 0.017 µM | 0.01 to 0.1 µM |
| COc1ccc2c(C(=O)c3cc(OC)c(OC)c(OC)c3)c(-c3cnn(C)c3)[nH]c2c1 [Entry 19, [6-Methoxy-2-(1-methyl-1H-pyrazol-4-yl)-1H-indol-3-yl]-(3,4,5-trimethoxyphenyl)-methanone] |  | 0.012 µM | 0.01 to 0.1 µM |
| COc1cc(C(=O)c2c(-c3cnn(CC(C)C)c3)oc3c(O)c(OC)ccc23)cc(OC)c1OC [Entry 26, 2-(4-N-isobutyl-pyrazolyl)-7-hydroxy-3-(3,4,5-trimethoxy-benzoyl)-6-methoxy-benzo[b]furan] | 0.014 µM | 0.021 µM | 0.001 to 0.01 µM |
| COc1cc(C(=O)c2c(-c3cccs3)oc3c(O)c(OC)ccc23)cc(OC)c1OC [Entry 28, 7-Hydroxy-2-(2-thiophenyl)-3-(3,4,5-trimethoxybenzoyl)-6-methoxy-benzo[b]furan] |  | < 0.001 µM | 0.0001 to 0.001 µM |
| COc1cc(C(=O)c2c(-c3ccc(C=O)s3)oc3c(O)c(OC)ccc23)cc(OC)c1OC [Entry 37, 2-(2-thiophene-5-carbaldehyde)-7-hydroxy-3-(3,4,5-trimethoxybenzoyl)-6-methoxy-benzo[b]furan] | 0.0023 µM | 0.0018 µM | 0.001 to 0.01 µM |
| COc1cc(C(=O)c2c(-c3cnn(C)c3)oc3c(F)c(OC)ccc23)cc(OC)c1OC [Entry 41] | 0.0036 µM | 0.0042 µM | 0.001 to 0.01 µM |
| COc1cc(C(=O)c2c(-n3cncn3)oc3c(O)c(OC)ccc23)cc(OC)c1OC [Entry 43, 2-(1,2,4-triazol-1-yl)-7-hydroxy-3-(3,4,5-trimethoxybenzoyl)-6-methoxy-benzo[b]furan] | 0.00032 µM | 0.00037 µM | 0.0001 to 0.001 µM |
| COc1cc(C(=O)c2c(-c3ccco3)oc3c(OP(=O)(O)O)c(OC)ccc23)cc(OC)c1OC [Entry 47, 7-(O-disodiumphosphate)-2-(2-furyl)-6-methoxy-3-(3,4,5-trimethoxybenzoyl)benzo-[b]furan] | 0.00031 µM | 0.00026 µM |  |
| COc1cc(C(=O)c2c(-c3nccs3)oc3c(OP(=O)(O)O)c(OC)ccc23)cc(OC)c1OC [Entry 48, 2-(2-Thiazolyl)-7-O-disodiumphosphate-6-methoxy-3-(3,4,5-trimethoxybenzoyl)-benzo[b]furan] | 0.0004 µM | 0.00053 µM |  |
